# Tested on: 966289-007-R4-J1-PDC complex spheroid viability
# Test: Anticancer human tumor 966289-007-R4-J1-PDC patient-derived pancreatic adenocarcinoma cell line growth inhibition [GQUAD]
# Details: for IC50: curve of first compound; for viability, T/C: stronger effect = lower value
# Source text: DNA G-quadruplex Stabilizer Agents in Combinations in Complex Spheroids
# A high-throughput screen of multi-cell type tumor spheroids was designed to identify active combinations of DNA G-quadruplex stabilizer agents and targeted small molecules. Complex spheroids include a stromal component modeled by human endothelial cells (HUVEC) and fibroblasts modeled by human mesenchymal stem cells (MSCs). The concentration ranges selected for each drug and investigational agent were based upon clinically achievable concentrations if the clinical Cmax of the agent was known.
# Compounds. The drugs and investigational agents: pidnarulex (CX-5461; NSC782164), APTO-253 (NSC789042), BRACO-19 (NSC847499), peposertib (NSC802822), ceralasertib (NSC780249), elimusertib (NSC800525), camonsertib (NSC841442), AZD-1390 (NSC803789), olaparib (NSC753686), talazoparib (NSC767125), ART-558 (NSC835418), sotorasib (NSC818433), MRTX-1133 (NSC836407), SN-38 (NSC673596), topotecan (NSC609699), etoposide (NSC141540), doxorubicin (NSC123127), gemcitabine (NSC613327), 5-fluorouracil (NSC19893), paclitaxel (NSC125973), vemurafenib (NSC761431), panobinostat (NSC761190), R-306465 (JNJ-16241199; NSC773264), adavosertib (NSC754352), TP-3654 (NSC805149), carboplatin (NSC241240), KSQ-4279 (NSC840948), and staurosporine (NSC755774) were obtained from the National Cancer Institute (NCI) Developmental Therapeutics Program Chemical Repository (34). The FDA-approved anticancer drug set is available from the NCI Developmental Therapeutics Program. […] The stock solutions were prepared in dimethyl sulfoxide (DMSO, Sigma-Aldrich, St. Louis, MO, cat. D2650) at 800-fold the tested concentration and stored at -70 degrees C prior to their use. All drugs and investigational agents were tested over a range starting from a high concentration at or near the clinical Cmax and decreasing in half-log increments. If the clinical Cmax for an agent had not been determined, the highest concentration tested was 10 microM.
# 2.3 Cell Culture. All cells were maintained in an incubator at 37 degrees C and 5% CO2 with 95% humidity. The PDC lines were cultured according to standard operating procedures established by the NCI PDMR. All PDCs were thawed and cultured in Matrigel-coated flasks prepared with a working solution of 1X Ham's F-12 nutrient mix, without supplementation (Invitrogen, cat. 11765054), 100 U/mL penicillin-streptomycin (Invitrogen, cat. 15140122), and 2.5% Matrigel (Corning Inc., cat. 354248) for the first three passages. The 857933-349-R-J2-PDC line was cultured in 6C/Colon 1B media, which includes advanced DMEM/F-12 (Thermo Fisher Scientific, cat. 12634028), 10 mM HEPES (Thermo Fisher Scientific, cat. 15630080), 1X GlutaMAX supplement (Thermo Fisher Scientific, cat. 35050061), 0.1 mg/mL primocin (InvivoGen, cat. ant-pm-2), 10% defined fetal bovine serum, heat inactivated (HyClone Laboratories Inc., cat. SH30070.03HI), 50% L-WRN conditioned media (ATCC, cat. CRL-3276), 1.25 mM N-Acetyl-L-cysteine (Sigma-Aldrich, cat. A9165), 10 mM nicotinamide (Sigma-Aldrich, cat. N0636), 1X B-27 supplement (Thermo Fisher Scientific, cat. 17504044), 1X N-2 supplement (Thermo Fisher Scientific, cat. 17502048), 10 microM Y-27632 dihydrochloride (Tocris Bioscience, cat. 1254), and 50 ng/mL human EGF recombinant protein (Thermo Fisher Scientific, cat. PHG0311). The 485176-168-R4-J1-PDC line was cultured in Panc media, which includes all 6C/Colon 1B media components plus 100 ng/mL human FGF-10 (Thermo Fisher Scientific, cat. 100-26), 500 nM SB-431542 (Selleckchem, cat. S1067), and gastrin (Tocris, cat. 3006).
# […]
# [1] = second compound 0.0316 µM, first compound 0.0316 µM
# [2] = second compound 0.0316 µM, first compound 0.1 µM
# [3] = second compound 0.0316 µM, first compound 0.316 µM
# [4] = second compound 0.0316 µM, first compound 1 µM
# [5] = second compound 0.0316 µM, first compound 3.16 µM
# [6] = second compound 0.0316 µM, first compound 10 µM
# [7] = second compound 0.1 µM, first compound 0.0316 µM
# [8] = second compound 0.1 µM, first compound 0.1 µM
# [9] = second compound 0.1 µM, first compound 0.316 µM
# [10] = second compound 0.1 µM, first compound 1 µM
# [11] = second compound 0.1 µM, first compound 3.16 µM
# [12] = second compound 0.1 µM, first compound 10 µM
# [13] = second compound 0.316 µM, first compound 0.0316 µM
# [14] = second compound 0.316 µM, first compound 0.1 µM
# [15] = second compound 0.316 µM, first compound 0.316 µM
# [16] = second compound 0.316 µM, first compound 1 µM
# [17] = second compound 0.316 µM, first compound 3.16 µM
# [18] = second compound 0.316 µM, first compound 10 µM
# [19] = second compound 1 µM, first compound 0.0316 µM
# [20] = second compound 1 µM, first compound 0.1 µM
# [21] = second compound 1 µM, first compound 0.316 µM
# [22] = second compound 1 µM, first compound 1 µM
# [23] = second compound 1 µM, first compound 3.16 µM
# [24] = second compound 1 µM, first compound 10 µM
# [25] = second compound 3.16 µM, first compound 0.0316 µM
# [26] = second compound 3.16 µM, first compound 0.1 µM
# [27] = second compound 3.16 µM, first compound 0.316 µM
# [28] = second compound 3.16 µM, first compound 1 µM
# [29] = second compound 3.16 µM, first compound 3.16 µM
# [30] = second compound 3.16 µM, first compound 10 µM
# [31] = second compound 10 µM, first compound 0.0316 µM
# [32] = second compound 10 µM, first compound 0.1 µM
# [33] = second compound 10 µM, first compound 0.316 µM
# [34] = second compound 10 µM, first compound 1 µM
# [35] = second compound 10 µM, first compound 3.16 µM
# [36] = second compound 10 µM, first compound 10 µM
# 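Further: spheroids exposed to the agents for seven days before readout.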
# 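Wherever viability, T/C is given: percent viability relative to DMSO vehicle control wells taken as 100%.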
structure (smiles),measurement,setting,value
COc1cccc2c1C(=O)c1c(O)c3c(c(O)c1C2=O)CC(O)(C(=O)CO)CC3OC1CC(N)C(O)C(C)O1 (centres undefined) + CN(C)c1ccc(Nc2c3ccc(NC(=O)CCN4CCCC4)cc3nc3cc(NC(=O)CCN4CCCC4)ccc23)cc1,IC50,second compound 0.0316 µM,69.2 nM
same,IC50,second compound 0.1 µM,67.1 nM
same,IC50,second compound 0.316 µM,65.1 nM
same,IC50,second compound 1 µM,66.2 nM
same,IC50,second compound 3.16 µM,65.7 nM
same,IC50,second compound 10 µM,59.6 nM
same,"viability, T/C",[1],112%
same,"viability, T/C",[2],20.7%
same,"viability, T/C",[3],3.69%
same,"viability, T/C",[4],0.82%
same,"viability, T/C",[5],0.35%
same,"viability, T/C",[6],0.92%
same,"viability, T/C",[7],108%
same,"viability, T/C",[8],19.4%
same,"viability, T/C",[9],3.8%
same,"viability, T/C",[10],0.83%
same,"viability, T/C",[11],0.26%
same,"viability, T/C",[12],0.53%
same,"viability, T/C",[13],105%
same,"viability, T/C",[14],17.7%
same,"viability, T/C",[15],3.65%
same,"viability, T/C",[16],0.88%
same,"viability, T/C",[17],0.29%
same,"viability, T/C",[18],0.67%
same,"viability, T/C",[19],101%
same,"viability, T/C",[20],21.3%
same,"viability, T/C",[21],3.85%
same,"viability, T/C",[22],0.93%
same,"viability, T/C",[23],0.27%
same,"viability, T/C",[24],0.34%
same,"viability, T/C",[25],106%
same,"viability, T/C",[26],18.1%
same,"viability, T/C",[27],3.67%
same,"viability, T/C",[28],0.97%
same,"viability, T/C",[29],0.25%
same,"viability, T/C",[30],0.67%
same,"viability, T/C",[31],97.9%
same,"viability, T/C",[32],11%
same,"viability, T/C",[33],1.38%
same,"viability, T/C",[34],0.42%
same,"viability, T/C",[35],0.24%
same,"viability, T/C",[36],0.29%
O=c1[nH]cc(F)c(=O)[nH]1 + CN(C)c1ccc(Nc2c3ccc(NC(=O)CCN4CCCC4)cc3nc3cc(NC(=O)CCN4CCCC4)ccc23)cc1,IC50,second compound 0.0316 µM,205 nM
same,IC50,second compound 0.1 µM,209 nM
same,IC50,second compound 0.316 µM,208 nM
same,IC50,second compound 1 µM,206 nM
same,IC50,second compound 3.16 µM,213 nM
same,IC50,second compound 10 µM,195 nM
same,"viability, T/C",[1],104%
same,"viability, T/C",[2],103%
same,"viability, T/C",[3],18.4%
same,"viability, T/C",[4],6.28%
same,"viability, T/C",[5],5.63%
same,"viability, T/C",[6],6.35%
same,"viability, T/C",[7],103%
same,"viability, T/C",[8],113%
same,"viability, T/C",[9],17.7%
same,"viability, T/C",[10],7.05%
same,"viability, T/C",[11],5.04%
same,"viability, T/C",[12],6.55%
same,"viability, T/C",[13],105%
same,"viability, T/C",[14],109%
same,"viability, T/C",[15],17.5%
same,"viability, T/C",[16],7.23%
same,"viability, T/C",[17],5.77%
same,"viability, T/C",[18],6.78%
same,"viability, T/C",[19],103%
same,"viability, T/C",[20],107%
same,"viability, T/C",[21],17.5%
same,"viability, T/C",[22],6.91%
same,"viability, T/C",[23],5.6%
same,"viability, T/C",[24],5.8%
same,"viability, T/C",[25],101%
same,"viability, T/C",[26],106%
same,"viability, T/C",[27],22.2%
same,"viability, T/C",[28],8.51%
same,"viability, T/C",[29],5.41%
same,"viability, T/C",[30],5.54%
same,"viability, T/C",[31],93.8%
same,"viability, T/C",[32],103%
same,"viability, T/C",[33],14.6%
same,"viability, T/C",[34],4.55%
same,"viability, T/C",[35],3.52%
same,"viability, T/C",[36],3.2%
